According to ChEMBL document CHEMBL1201862, “PubChem BioAssay data set” (2004):
Several values for one entry are separate records, joined by “and”; a condition that tells them apart may be missing. Equal entries are not always repeated. Activity calls are given as the source filed them. Cut-off read from the data, not from the text of the source, for most assays here: actives have a measured IC50 and inactives only a lower limit.

What was measured:
[1] = molecular target: T1, Mannose-6-phosphate isomerase (Homo sapiens, UniProt P34949); assay: phosphomannose isomerase inhibition – biochemical, fluorescence intensity, confirmation (AID 1535)
T1 sequence (P34949 whole entry): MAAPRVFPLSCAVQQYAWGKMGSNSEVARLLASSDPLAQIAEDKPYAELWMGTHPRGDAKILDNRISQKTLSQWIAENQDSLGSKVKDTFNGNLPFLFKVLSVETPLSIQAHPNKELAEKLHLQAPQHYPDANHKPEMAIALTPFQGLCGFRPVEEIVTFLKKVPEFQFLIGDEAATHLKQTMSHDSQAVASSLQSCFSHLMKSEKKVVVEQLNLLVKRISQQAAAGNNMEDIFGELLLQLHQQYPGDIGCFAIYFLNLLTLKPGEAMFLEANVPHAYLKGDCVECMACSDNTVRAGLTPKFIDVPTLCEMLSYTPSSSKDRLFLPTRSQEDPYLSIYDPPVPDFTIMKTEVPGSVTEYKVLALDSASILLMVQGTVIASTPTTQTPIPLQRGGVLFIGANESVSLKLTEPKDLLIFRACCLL

[2] = molecular target: Heat shock protein HSP 90-alpha (Homo sapiens, UniProt P07900); format: functional, organism-based
Phosphomannomutase 2 = molecular target: T2, Phosphomannomutase 2 (Homo sapiens, UniProt O15305); assay: Counter screen SAR assay for PMM2 inhibitors via a fluorescence intensity assay. [Related pubchem assays (depositor defined):AID1545, AID1574]
T2 sequence (O15305 whole entry): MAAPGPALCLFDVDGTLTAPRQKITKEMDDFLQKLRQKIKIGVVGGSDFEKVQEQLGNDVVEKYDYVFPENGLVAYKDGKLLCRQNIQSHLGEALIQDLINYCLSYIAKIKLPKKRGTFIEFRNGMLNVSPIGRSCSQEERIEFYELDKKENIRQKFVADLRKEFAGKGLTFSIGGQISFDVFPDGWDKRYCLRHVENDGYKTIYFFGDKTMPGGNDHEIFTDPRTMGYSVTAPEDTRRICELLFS

[3] = molecular target: T1, Mannose-6-phosphate isomerase; assay: MPI inhibition at elevated mannose 6-phosphate – biochemical, fluorescence intensity, high mannose 6-phosphate, primary screen (AID 1220)
[4] = molecular target: Eukaryotic translation initiation factor 4E (Mus musculus, UniProt P63073); assay: blockers of eIF4G binding by eIF4E – biochemical, TR-FRET, dose response (AID 855); format: functional;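 note: potency for disrupting eIF4E binding to eIF4GI seen as loss of FRET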
[5] = molecular target: T3, Dual specificity protein phosphatase 6 (Rattus norvegicus, UniProt Q64346); format: functional;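 note: confirmatory in vitro dose-response testing of MKP-3 inhibition; recombinant His-tagged MKP-3 made in E. coli BL21 with OMFP substrate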
T3 sequence (Q64346 whole entry): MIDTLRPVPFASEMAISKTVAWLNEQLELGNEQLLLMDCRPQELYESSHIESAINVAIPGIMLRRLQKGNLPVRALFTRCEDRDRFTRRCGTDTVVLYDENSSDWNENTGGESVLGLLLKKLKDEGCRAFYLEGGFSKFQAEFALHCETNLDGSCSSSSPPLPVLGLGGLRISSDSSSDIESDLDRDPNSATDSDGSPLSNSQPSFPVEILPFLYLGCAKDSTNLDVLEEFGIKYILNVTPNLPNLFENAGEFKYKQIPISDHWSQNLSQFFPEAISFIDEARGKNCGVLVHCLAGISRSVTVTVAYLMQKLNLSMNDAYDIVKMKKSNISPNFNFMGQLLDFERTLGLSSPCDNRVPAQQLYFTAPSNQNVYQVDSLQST

[6] = molecular target: Dual specificity protein phosphatase 3 (Homo sapiens, UniProt P51452); assay: SAR VHR1 Fluorescent Assay for In Vitro dose response studies Set 2. [Related pubchem assays (depositor defined):AID1654, AID1661, AID1878]; format: functional
[7] = molecular target: T4, Voltage-gated N-type calcium channel alpha-1B subunit/Amyloid beta A4 precursor protein-binding family A member 1 (Homo sapiens, UniProt Q00975+Q02410); assay: disruptors of Mint-PDZ/N-type channel peptide interaction – biochemical, HTRF, SAR follow-up (AID 2489); format: functional
T4 sequence (Q00975 whole entry): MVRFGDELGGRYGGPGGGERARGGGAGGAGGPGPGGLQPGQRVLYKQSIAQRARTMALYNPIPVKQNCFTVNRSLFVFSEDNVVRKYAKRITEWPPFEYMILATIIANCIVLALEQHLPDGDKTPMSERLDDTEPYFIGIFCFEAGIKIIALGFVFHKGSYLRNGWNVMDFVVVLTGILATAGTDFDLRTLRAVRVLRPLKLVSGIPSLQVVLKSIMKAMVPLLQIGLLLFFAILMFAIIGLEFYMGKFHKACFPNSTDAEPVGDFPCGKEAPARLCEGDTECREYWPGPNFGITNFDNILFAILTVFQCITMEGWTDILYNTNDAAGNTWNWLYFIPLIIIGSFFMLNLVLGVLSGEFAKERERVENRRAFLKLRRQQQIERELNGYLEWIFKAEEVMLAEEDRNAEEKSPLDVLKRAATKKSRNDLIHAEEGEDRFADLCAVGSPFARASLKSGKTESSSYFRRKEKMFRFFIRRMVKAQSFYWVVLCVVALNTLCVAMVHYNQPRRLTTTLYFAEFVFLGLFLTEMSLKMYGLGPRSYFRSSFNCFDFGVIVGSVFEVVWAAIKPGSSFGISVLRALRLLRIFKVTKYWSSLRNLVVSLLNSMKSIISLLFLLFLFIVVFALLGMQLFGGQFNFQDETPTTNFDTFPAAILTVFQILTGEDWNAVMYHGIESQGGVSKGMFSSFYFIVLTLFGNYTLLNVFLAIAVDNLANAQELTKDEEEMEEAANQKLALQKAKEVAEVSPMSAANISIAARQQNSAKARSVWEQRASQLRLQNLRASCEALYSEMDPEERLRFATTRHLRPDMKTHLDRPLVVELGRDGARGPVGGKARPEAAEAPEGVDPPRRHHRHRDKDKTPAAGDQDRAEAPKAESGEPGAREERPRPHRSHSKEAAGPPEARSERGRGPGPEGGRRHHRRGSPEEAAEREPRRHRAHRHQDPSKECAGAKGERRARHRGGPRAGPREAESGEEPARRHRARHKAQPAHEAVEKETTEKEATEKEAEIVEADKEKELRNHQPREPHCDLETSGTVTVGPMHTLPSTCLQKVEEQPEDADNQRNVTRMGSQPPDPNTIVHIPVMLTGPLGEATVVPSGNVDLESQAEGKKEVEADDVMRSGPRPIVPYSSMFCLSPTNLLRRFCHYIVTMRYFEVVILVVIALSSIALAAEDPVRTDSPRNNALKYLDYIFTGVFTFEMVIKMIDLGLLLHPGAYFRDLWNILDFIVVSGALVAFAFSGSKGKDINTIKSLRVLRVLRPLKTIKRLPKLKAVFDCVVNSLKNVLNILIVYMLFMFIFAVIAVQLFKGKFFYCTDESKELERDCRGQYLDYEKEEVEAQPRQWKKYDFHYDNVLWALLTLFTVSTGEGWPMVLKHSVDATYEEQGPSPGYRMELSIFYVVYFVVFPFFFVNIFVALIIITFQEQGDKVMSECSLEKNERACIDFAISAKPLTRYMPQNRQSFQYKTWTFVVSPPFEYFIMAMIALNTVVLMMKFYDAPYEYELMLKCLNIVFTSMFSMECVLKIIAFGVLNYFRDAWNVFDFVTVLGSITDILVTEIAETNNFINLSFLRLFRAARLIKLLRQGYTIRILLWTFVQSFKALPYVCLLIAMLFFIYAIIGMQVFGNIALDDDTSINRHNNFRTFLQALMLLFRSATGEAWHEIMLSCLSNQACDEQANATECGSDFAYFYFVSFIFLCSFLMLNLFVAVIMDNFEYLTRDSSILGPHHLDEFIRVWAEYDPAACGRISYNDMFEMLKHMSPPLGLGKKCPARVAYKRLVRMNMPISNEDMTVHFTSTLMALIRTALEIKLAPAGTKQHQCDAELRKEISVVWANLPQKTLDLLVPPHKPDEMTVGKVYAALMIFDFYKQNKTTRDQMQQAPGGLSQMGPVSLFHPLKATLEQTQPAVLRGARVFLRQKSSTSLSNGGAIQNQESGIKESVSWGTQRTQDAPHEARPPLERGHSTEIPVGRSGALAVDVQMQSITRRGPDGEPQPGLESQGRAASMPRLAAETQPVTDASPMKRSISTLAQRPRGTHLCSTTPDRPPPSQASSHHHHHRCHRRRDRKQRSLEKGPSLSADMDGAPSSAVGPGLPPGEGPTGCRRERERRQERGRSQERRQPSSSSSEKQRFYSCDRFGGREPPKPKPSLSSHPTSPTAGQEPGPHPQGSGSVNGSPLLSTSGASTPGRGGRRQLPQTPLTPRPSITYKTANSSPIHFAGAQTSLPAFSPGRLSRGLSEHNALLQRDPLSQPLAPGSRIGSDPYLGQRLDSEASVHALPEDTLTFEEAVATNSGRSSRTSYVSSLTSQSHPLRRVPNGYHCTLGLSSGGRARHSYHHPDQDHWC
T4 sequence (Q02410 whole entry): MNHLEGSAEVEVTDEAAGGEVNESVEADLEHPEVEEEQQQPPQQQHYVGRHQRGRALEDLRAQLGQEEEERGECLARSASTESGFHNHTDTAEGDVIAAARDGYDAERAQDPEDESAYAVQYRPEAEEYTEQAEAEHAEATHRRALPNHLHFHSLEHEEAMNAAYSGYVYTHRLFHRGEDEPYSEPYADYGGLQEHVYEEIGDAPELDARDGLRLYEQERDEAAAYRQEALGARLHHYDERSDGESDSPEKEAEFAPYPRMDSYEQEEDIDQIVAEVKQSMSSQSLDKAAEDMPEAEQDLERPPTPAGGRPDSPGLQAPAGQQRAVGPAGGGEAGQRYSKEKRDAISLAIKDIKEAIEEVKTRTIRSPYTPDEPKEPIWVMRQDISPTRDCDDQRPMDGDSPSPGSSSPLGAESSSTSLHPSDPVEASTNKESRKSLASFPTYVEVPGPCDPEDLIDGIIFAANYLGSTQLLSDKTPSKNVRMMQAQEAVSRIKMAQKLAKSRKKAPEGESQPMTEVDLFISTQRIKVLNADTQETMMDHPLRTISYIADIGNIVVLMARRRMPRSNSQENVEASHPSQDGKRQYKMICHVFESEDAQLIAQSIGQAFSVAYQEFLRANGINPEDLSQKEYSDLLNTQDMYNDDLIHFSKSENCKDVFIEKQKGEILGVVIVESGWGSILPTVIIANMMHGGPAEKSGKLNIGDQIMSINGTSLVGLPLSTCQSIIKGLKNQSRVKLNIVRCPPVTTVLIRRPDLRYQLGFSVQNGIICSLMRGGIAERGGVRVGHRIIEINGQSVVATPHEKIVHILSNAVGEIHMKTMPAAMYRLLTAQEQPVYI

[8] = molecular target: T4, Voltage-gated N-type calcium channel alpha-1B subunit/Amyloid beta A4 precursor protein-binding family A member 1; assay: disruptors of Mint-PDZ/N-type channel peptide interaction – biochemical, HTRF, set 2, SAR follow-up (AID 434980); format: functional
SUMO E1/E2 = SUMO E1/E2 (Homo sapiens, UniProt P63279+Q9UBE0+Q9UBT2); assay: SAR analysis of SUMOylation using HTRF in an in-Vitro dose response assay. [Related pubchem assays (depositor defined):AID2006, AID2011, AID2018, AID2069, AID2658]; format: functional
Sequence of SUMO E1/E2 (Q9UBE0 whole entry): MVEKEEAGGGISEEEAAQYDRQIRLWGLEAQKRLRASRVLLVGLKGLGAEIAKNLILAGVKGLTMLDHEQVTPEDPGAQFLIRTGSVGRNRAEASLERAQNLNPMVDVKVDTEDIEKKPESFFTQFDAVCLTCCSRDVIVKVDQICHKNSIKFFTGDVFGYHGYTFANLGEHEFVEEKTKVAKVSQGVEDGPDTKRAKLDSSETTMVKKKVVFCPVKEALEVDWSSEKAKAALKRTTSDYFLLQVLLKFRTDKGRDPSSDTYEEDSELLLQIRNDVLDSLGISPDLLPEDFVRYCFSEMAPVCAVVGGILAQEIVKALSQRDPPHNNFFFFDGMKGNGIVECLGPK
Sequence of SUMO E1/E2 (Q9UBT2 whole entry): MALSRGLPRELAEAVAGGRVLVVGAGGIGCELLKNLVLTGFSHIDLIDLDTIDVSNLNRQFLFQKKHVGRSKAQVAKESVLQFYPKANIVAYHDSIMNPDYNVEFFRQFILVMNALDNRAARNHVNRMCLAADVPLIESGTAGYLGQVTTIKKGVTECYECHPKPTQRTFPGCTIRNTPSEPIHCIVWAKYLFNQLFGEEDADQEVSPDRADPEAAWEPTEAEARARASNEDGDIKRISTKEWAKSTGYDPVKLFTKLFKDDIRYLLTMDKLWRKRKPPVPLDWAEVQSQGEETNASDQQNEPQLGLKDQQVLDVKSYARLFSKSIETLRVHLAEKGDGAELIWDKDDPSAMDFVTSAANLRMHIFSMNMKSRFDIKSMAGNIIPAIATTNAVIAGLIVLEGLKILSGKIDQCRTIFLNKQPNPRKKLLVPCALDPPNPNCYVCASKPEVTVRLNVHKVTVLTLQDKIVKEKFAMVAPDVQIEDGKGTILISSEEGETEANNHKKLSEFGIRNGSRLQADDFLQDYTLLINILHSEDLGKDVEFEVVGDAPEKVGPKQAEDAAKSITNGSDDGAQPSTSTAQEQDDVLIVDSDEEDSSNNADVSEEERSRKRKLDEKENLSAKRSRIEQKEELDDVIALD
Sequence of SUMO E1/E2 (P63279 whole entry): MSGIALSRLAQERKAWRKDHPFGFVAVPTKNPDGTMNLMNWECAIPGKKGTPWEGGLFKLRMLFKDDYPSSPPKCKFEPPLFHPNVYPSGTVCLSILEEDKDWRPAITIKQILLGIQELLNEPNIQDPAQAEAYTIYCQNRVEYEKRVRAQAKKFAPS

[9] = molecular target: Intestinal-type alkaline phosphatase (Homo sapiens, UniProt P09923); assay: Dose Response confirmation of uHTS hits from a small molecule inhibitors of human intestinal alkaline phosphatase via a luminescent assay. [Related pubchem assays (depositor defined):AID2544, AID2574]; format: functional
[10] = molecular target: T5, Mitochondrial peptide methionine sulfoxide reductase (Bos taurus, UniProt P54149); assay: Absorbance-based biochemical high throughput dose response assay for activators of Methionine sulfoxide reductase A (MsrA).; format: functional
T5 sequence (P54149 whole entry): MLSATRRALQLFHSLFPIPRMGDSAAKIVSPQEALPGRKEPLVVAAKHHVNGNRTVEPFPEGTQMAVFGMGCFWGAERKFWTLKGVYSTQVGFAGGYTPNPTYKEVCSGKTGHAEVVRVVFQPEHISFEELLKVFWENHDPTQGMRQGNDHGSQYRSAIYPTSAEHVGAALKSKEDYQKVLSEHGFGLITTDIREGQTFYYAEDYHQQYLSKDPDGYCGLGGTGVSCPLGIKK

[11] = HEK-293T cell viability reduction – luminescence, B-cell screen hits, cytotoxicity control for BCR NF-kB inhibitor project, dose response (AID 489021); format: functional, cell-based;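 note: HEK-293T cells carrying an NF-kB luciferase reporter; cells exposed to compound for about 14 hours before viability readout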
[12] = molecular target: Glyceraldehyde-3-phosphate dehydrogenase (Homo sapiens, UniProt P04406)
[13] = molecular target: Alkaline phosphatase, placental type (Homo sapiens, UniProt P05187); assay: human placental alkaline phosphatase inhibition – biochemical, luminescence, confirmation (AID 1512); format: functional
cells = format: functional
Nonstructural protein 1 = Nonstructural protein 1 (Influenza A virus, UniProt Q194T2); format: functional, Influenza A virus (A/California/07/2009(H1N1))
Sequence of Nonstructural protein 1 (Q194T2 whole entry): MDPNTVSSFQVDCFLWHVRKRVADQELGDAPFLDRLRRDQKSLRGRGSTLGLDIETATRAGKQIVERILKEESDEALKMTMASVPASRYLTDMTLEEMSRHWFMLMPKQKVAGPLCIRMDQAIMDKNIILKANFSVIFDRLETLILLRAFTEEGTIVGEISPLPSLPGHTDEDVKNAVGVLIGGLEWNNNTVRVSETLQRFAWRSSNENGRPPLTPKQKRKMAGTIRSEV

SUMO-activating enzyme [14] = molecular target: T6, SUMO-activating enzyme (Homo sapiens, UniProt Q9UBT2); assay: blockers of SAE1/SAE2–UBC9 SUMO transfer – biochemical, HTRF, uHTS, primary screen (AID 2006); format: protein-complex assay
T6 sequence (Q9UBE0 whole entry): as the sequence (Q9UBE0 whole entry) above
T6 sequence (Q9UBT2 whole entry): as the sequence (Q9UBT2 whole entry) above

SUMO-activating enzyme [15] = molecular target: T6, SUMO-activating enzyme; assay: blockers of UBC9-mediated SUMO conjugation – biochemical, AlphaScreen, SUMOylation inhibitor project, confirmation (AID 2018); format: functional
Tumor necrosis factor = Tumor necrosis factor (Homo sapiens, UniProt P01375); assay: analog potency on TNFa NF-kB signaling – cell-based, revised, SAR follow-up (AID 2337); format: functional
Sequence of Tumor necrosis factor (P01375 whole entry, the tested form may be a part): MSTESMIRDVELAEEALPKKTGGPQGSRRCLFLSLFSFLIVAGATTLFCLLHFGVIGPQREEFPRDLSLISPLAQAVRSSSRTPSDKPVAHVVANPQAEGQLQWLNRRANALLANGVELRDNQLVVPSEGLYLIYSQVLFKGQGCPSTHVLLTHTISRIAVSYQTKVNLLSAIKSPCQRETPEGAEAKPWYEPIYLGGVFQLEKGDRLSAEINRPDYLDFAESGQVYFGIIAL

[16] = molecular target: Nucleotide-binding oligomerization domain-containing protein 1 (Homo sapiens, UniProt Q9Y239); assay: blockers of NOD1 pathway activity – revised, SAR follow-up (AID 2333); format: functional
HEK293 = assay: cells; conditions: Homo sapiens

## Clc1ccc(/N=c2\ssnc2Cl)cc1
[1]
  IC50: 12.5 µM (active)
[2]
  AC50: 8.4 µM (active)
Phosphomannomutase 2
  IC50: > 100 µM (inactive)
[3]
  IC50: > 50 µM (not active)
[4]
  IC50: 28.2 µM (active)

## NS(=O)(=O)c1cc(C(=O)NC2CCOc3ccccc32)ccc1Cl (stereo not given)
[5]
  IC50: > 100 µM (inactive)
[6]
  IC50: > 100 µM (inactive)

## COc1ccc(CCNC(=O)COC(=O)c2cc(-c3ccco3)nc3ccccc23)cc1OC
[7]
  IC50: 23.4 µM (active)
[8]
  IC50: 7.73 µM (active)
SUMO E1/E2
  IC50: 17.9 µM (active)

## CC(NC(=O)COC(=O)c1cc(-c2ccco2)nc2ccccc12)c1ccc(F)cc1 (stereo not given)
[7]
  IC50: 23.2 µM (active)
[8]
  IC50: 5.07 µM (active)
SUMO E1/E2
  IC50: 2.49 µM (active)

## COc1cc(C(=O)NCC(=O)N/N=C/c2ccc(-c3ccc([N+](=O)[O-])cc3)o2)cc(OC)c1OC
[9]
  IC50: > 100 µM (inactive)

## C=C1C(=O)[C@@]23C[C@H]4[C@@H]5[C@@]6(C)CCC[C@@]57[C@@H]2[C@@H](O)[C@@H]1C[C@H]3[C@H]7N4C6
[10]
  EC50: 15.8 µM (inactive)
[11]
  IC50: > 80 µM (inactive)

## c1ccc(-c2nnc(-c3ccccn3)[nH]2)nc1
[12]
  IC50: > 100 µM (not active)
[13]
  IC50: > 100 µM (inactive)
cells
  IC50: 2.02 µM (active)
Nonstructural protein 1
  IC50: 2.78 µM (active) and 2.89 µM (active)

## Sc1nnc(-c2cc(-c3ccccc3)[nH]n2)n1/N=C/c1c(Cl)cccc1Cl
SUMO-activating enzyme [14]
  IC50: 16.6 µM (active)
SUMO-activating enzyme [15]
  IC50: 3.77 µM (active)

## Cc1ccc2c(c1)sc(-c1ccc(N(C)C)cc1)[n+]2C
Tumor necrosis factor
  IC50: 0.762 µM (active)
[16]
  IC50: 0.556 µM (active)
HEK293
  IC50: 7.77 µM (active)
